Patent US11878059B2, “Sonodynamic therapy” (UNIVERSITY OF ULSTER, priority 2017, dated 2024)

Columns and labels:
BxPc-3 [1] = experiment: MTT cytotoxicity of Biotin-Gem and Biotin-Gem-RB in BxPC-3 cells; type: cell-based, human; conditions: 48 h incubation
Protocol: To ensure the antimetabolite efficacy of Biotin-Gem and Biotin-Gem-RB were unaffected by chemical modification, the cytotoxicity of the conjugates was determined in the human pancreatic adenocarcinoma cell line BxPc-3. […] These cells were seeded into 96 well plates at a density of 5000 cells per well. The plates were then incubated for 24 hours followed by the addition of 100 uL of media spiked with either Gem, Biotin-Gem or Biotin-Gem-RB. The concentrations used for Biotin-Gem were […] while for Biotin-Gem-RB, concentrations of 0.01 μM, 0.05 μM, 0.1 μM, 0.5 μM, 1 μM, 5 μM and 10 μM were investigated. Corresponding concentrations of Gem were used in each case. The cells were then further incubated for 48 hours before cell viability was determined using an MTT assay.

Mia-PaCa-2 = experiment: MTT assay biotin-GEM-RB vs gemcitabine hydrochloride, Mia-PaCa-2; type: cell-based, human; conditions: Mia-PaCa-2, 0-1000 μM, 48 h
Protocol: (§1) Human primary pancreatic adenocarcinoma cell lines BxPc-3, Panc-1 and Mia-PaCa-2 were maintained in RPMI 1640 medium which was supplemented with 100 U/mL penicillin, […] streptomycin, and 10% fetal bovine serum (FBS) and Dulbecco's Modified Eagle's Medium (DMEM) containing 1 g/L glucose and supplemented with 100 U/mL penicillin, […] streptomycin, and 10% fetal bovine serum (FBS) respectively in a humidified 5% CO2 atmosphere at 37° C. These cells were seeded into 96 well plates at a density of 5000 cells per well. The plates were then incubated for 24 hours followed by the addition of 100 μL of media spiked with Gem or Biotin-Gem-RB at concentrations ranging from 0.001-1000 μM. The cells were then further incubated for 48 hours before cell viability was determined by an MTT assay.

BxPc-3 [2] = experiment: MTT assay biotin-GEM-RB vs gemcitabine hydrochloride, BxPc-3; type: cell-based, human; conditions: BxPc-3, 0-1000 μM, 48 h
Protocol: as §1

Panc-1 = experiment: MTT assay biotin-GEM-RB vs gemcitabine hydrochloride, Panc-1; type: cell-based, human
Protocol: as §1

MCF-7 cells = experiment: Colony forming assay in MCF-7 cells; type: cell-based, human; conditions: +US (1 MHz, 30 s, 3 Wcm^−2); PTX 1 nM, Dox 10 nM, RB 10 nM, 3 hours
Protocol: FIG. 16 is a plot showing % survival fraction from a MCF-7 colony forming assay. Cells following treatment with PTX/Dox/RB alone (Drug combo) or following treatment with ultrasound (Drug Combo+US). After treatment cells were incubated for 8 days followed by fixation and staining. Crystal violet staining was quantified via Image J.
In this study, the concentration of each individual drug used was intentionally sub-lethal, so that any benefit obtained by the combination treatment could easily be identified. In addition, as the action of ultrasound can influence the cellular uptake of drugs as a result of sonoporation, cells treated with Dox or PTX were also exposed to ultrasound, to control for any potential ultrasound mediated effects on cell viability as a result of sonoporation. Following treatment, cell viability was determined using a colony forming assay.
MCF-7 cells were seeded (5×10^3) in a 96 well plate, 24 hours later cells were treated with free drug as a single treatment of PTX (1 nM), Dox (10 nM), RB (10 nM) or combination treatment for 3 hours followed by media replacement. Selected wells were treated with ultrasound delivered using a Sonidel SP100 sonoporator (1 MHz, 30 seconds, 3 Wcm^−2, duty cycle=50%, and PRF=100 Hz). The following day cells were pooled from 2 wells and seeded in a 6 well plate. Plates were placed in an incubator for 7 days. Media was removed from wells, fixation/staining solution was added at room temperature for 20 minutes. Fixative/staining solution contained: 0.5 g crystal violet (0.05%), 27 ml 37% formaldehyde, 100 ml 10×PBS (X1), 10 mL methanol (1%) and 863 mL of distilled water. Solution was removed and washed under running water. Pictures were taking using a high-resolution camera and colony formation was analysed via Image J.

[3] = Body weight of Mia-PaCa-2 tumour bearing mice (FIG. 11b); type: in vivo, SCID mice; conditions: clinical dose 120 mg/Kg I.P., day 6
Protocol: The microbubble suspension (6.86×10^7±1.99×10^6 MB) was delivered as a 100 uL I.V injection (PTX—2.44±0.37 mg/Kg, GEM—0.5±0.04 mg/Kg, RB—1.85±0.14 mg/Kg). Gemcitabine hydrochloride was dissolved in sterile PBS and administered as a 100 uL I.P injection (120 mg/Kg). Ultrasound treatment was delivered for 3.5 minutes at frequency of 1 MHz, an ultrasound power density of 3.5 W/cm^2 and a duty cycle of 30% immediately after injection and 30 minutes following. Error bars represent±the standard error.
Mia-Paca-2 cells were maintained in DMEM medium and BxPc-3 cells were maintained in RPMI 1640 both supplemented with 100 U/mL penicillin, […] streptomycin, and 10% fetal bovine serum (FBS) in a humidified 5% CO2 atmosphere at 37° C. Cells (5×10^6) were re-suspended in Matrigel® and implanted subcutaneously into the rear dorsum of SCID (C.B-17/IcrHan®Hsd-Prkdcscid) mice. Tumours reached treatable size within 3 weeks. Tumour measurements were taken daily using callipers. Once the tumours had reached an average volume of 150 mm^3 animals were randomly assigned into treatment groups. Animals were anaesthetised by intraperitoneal injection of hypnorm:hypnovel:ice cold sterile water for injection (1:2:1). […] Tumour growth was monitored daily throughout the course of the treatment.

## Nc1ccn([C@@H]2O[C@H](COC(=O)OCCNC(=O)CCCCC3SCC4NC(=O)NC43)[C@@H](O)C2(F)F)c(=O)n1 (stereo partly drawn) [Biotin-Gem, (2R,3R,5R)-5-(4-amino-2-oxopyrimidin-1(2H)-yl)-4,4-difluoro-3 hydroxytetrahydrofuran-2-yl)methyl (2-(5-(2-oxohexahydro-1H-thieno[3,4-d]imidazol-4-yl)pentanamido)ethyl) carbonate]
BxPc-3 [1]; 0-100 μM
  efficacy (cell viability, MTT) compared to Gemcitabine: no statistically significant difference in efficacy

## Nc1ccn([C@@H]2O[C@H](COC(=O)CCCCCCC(=O)NCCN(CCNC(=O)CCCCCCC(=O)NCCOC(=O)c3c(Cl)c(Cl)c(Cl)c(Cl)c3-c3c4cc(I)c(=O)c(I)c-4oc4c(I)c(O)c(I)cc34)CCNC(=O)CCCCC3SCC4NC(=O)NC43)[C@@H](O)C2(F)F)c(=O)n1 (stereo partly drawn) [Biotin-Gem-RB, ((2R,3R, 5R)-5-(4-amino-2-oxopyrimidin-1 (2H)-yl)-4,4-difluoro-3-hydroxytetrahydrofuran-2-yl)methyl 4,11,19-trioxo-15-(2-(5-(2-oxohexahydro-1H-thieno[3,4-d]imidazol-4-yl)pentanamido)ethyl)-1-((2,3,4,5-tetrachloro-6-(6-hydroxy-2,4,5,7-tetraiodo-3-oxo-3H-xanthen-9-yl)benzoyl)oxy)-3,12,15,18-tetraazahexacosan-26-oate]
Mia-PaCa-2
  efficacy vs gemcitabine HCl (MTT): no decrease in efficacy
BxPc-3 [1]; 0.01-10 μM
  efficacy (cell viability, MTT) compared to Gemcitabine: no statistically significant difference in efficacy
BxPc-3 [2]
  efficacy vs gemcitabine HCl (MTT): no decrease in efficacy
Panc-1; Panc-1, 0-1000 μM, 48 h
  efficacy vs gemcitabine HCl (MTT): no decrease in efficacy
Panc-1; Panc-1, above 10 μM
  efficacy vs gemcitabine HCl (MTT): significant increase in efficacy

## COc1cccc2c1C(=O)c1c(O)c3c(c(O)c1C2=O)C[C@@](O)(C(=O)CO)C[C@@H]3O[C@H]1C[C@H](N)[C@H](O)[C@H](C)O1 [Dox, doxorubicin]
MCF-7 cells
  reduction of colony number compared to untreated cells: 29.3%

## CC(=O)O[C@H]1C(=O)[C@@]2(C)[C@H]([C@H](OC(=O)c3ccccc3)[C@]3(O)C[C@H](OC(=O)[C@H](O)[C@@H](NC(=O)c4ccccc4)c4ccccc4)C(C)=C1C3(C)C)[C@]1(OC(C)=O)CO[C@@H]1C[C@@H]2O [PTX, paclitaxel]
MCF-7 cells
  reduction of colony number compared to untreated cells: 7.3%

## O=C1OC2(c3cc(I)c(O)c(I)c3Oc3c2cc(I)c(O)c3I)c2c(Cl)c(Cl)c(Cl)c(Cl)c21 [RB, Rose Bengal]
MCF-7 cells
  reduction of colony number compared to untreated cells: 18.8%

## Nc1ccn([C@@H]2O[C@H](CO)[C@@H](O)C2(F)F)c(=O)n1 [gemcitabine]
[3]
  decrease in body weight: 12%
